The values that follow come from patent publication US8575214B2, “MGlu 2/3 agonists” (Eli Lilly and Company, priority 2012, dated 2013).

Test [1] deals with rats. The test is described as follows: Reversal of L5/L6 nerve ligation induced tactile allodynia. The format is in vivo, rat. Particulars: 15 mg/kg orally, n=8, ±SEM. The method, then: Unilateral ligation of nerves innervating the hind leg region will result in a chronic persistent pain manifested as tactile allodynia in rats. L5/L6 nerve ligation is performed (Kim et al. Pain (1992) 50, 355-363). Neuropathic injury is produced by tightly ligating the left L5 and L6 spinal nerves under gaseous anesthesia with a mixture of isoflurane (3% for induction and 2% for maintenance) and oxygen. After a minimum of 14 days after surgery, tactile allodynia is evaluated by measuring tactile sensitivity of the injured paw to von Frey filaments with incremental bending forces (0.3 to 15 g) (Chaplan et al. J. of Neuroscience Methods (1994) 53, 55-63). […] Baseline values are determined immediately prior to assessment of test compound. A test compound (prodrug) is orally dosed at 15 mg/kg and the tactile threshold for paw withdrawal is measured at 1, 2 and 4 hours post dosing. Data are expressed as response threshold in grams (g) and values are with standard errors of means (±SE mean) for each time point. Data are analyzed using an analysis of variance followed by a Dunnett's post hoc analysis and represent absolute change in pain threshold (Cmax=maximum Response Baseline) and expressed as Mean [log (maximum response)−log predose score)] (g).

For a further test, the system named is Male Sprague Dawley rats. The test is described as follows: Reversal of colorectal distension-induced pain behaviors. The class given is in vivo, rat. Particulars: 90 minutes post dosing, mean ± SEM. The procedure: Visceral pain in rats can be induced by distension of the colorectal cavity and pain monitored by accessing the reflex contraction of abdominal muscles. Measurement of abdominal muscle reflex contractions with pain caused by colorectal distension in the rat is performed substantially as described by Fioramonti et al. Neurogastroenterology and Motility (2003) 15, 363-369 and Urban et al. J. of Pharmacology and Exp. Ther. (1999) 290, 207-213. Male Sprague Dawley rats are surgically implanted with electromyographic (EMG) electrodes in the oblique abdominal muscle and allowed to recover for one week, during which animals are acclimated to handling and partial restraint to minimize effects of stress. Baseline EMG measurements are collected and recorded after the insertion into the rectum (8 cm) of a lubricated latex balloon attached to a pressure monitor/regulator to step the pressure between 20, 40, and 60 mm Hg for a 20 second duration with a 3 minute resting period between trials. A set of three exposures at each pressure is recorded before stepping the pressure up to the next level. Data are collected as the area under the curve for EMG reading (volts per second) during the pressure stimulations, and averaged over the three trials. A test compound (prodrug) is orally dosed within a range of 1.5 to 17 mg/kg 90 minutes prior to the beginning of the colorectal distension. Statistical significance is defined as a p value <0.05 in an analysis of covariance followed by a Dunnett's post hoc test. Table 3 below provides the statistically significant results for Example 10 run substantially as above.

The subject of test [2] is rats. Nature of the test: Reversal of CFA-induced mechanical hyperalgesia (Randall Sellito test). The class given is in vivo, rat. Particulars: mean ± SEM, p<0.05 vs vehicle. The method, then: Induction of local inflammation in the rat hind paw will cause a persistent mechanical hyperalgesia that can be measured by determining the threshold to pressure stimuli to give a painful response. The method for complete Freund's adjuvant (CFA) induced mechanical hyperalgesia in rats is largely described in Iadarola et al. Brain Res. (1988) 455, 205-212. Rats are placed under isoflurane anesthesia while the right paw is injected with 50 μl of CFA (Sigma C5881, 1 mg/ml mycobacterium extract in 85% paraffin oil, 15% mannide monooleate) intraplantar. Animals are allowed to recover in soft bedding cages and mechanical hyperalgesia changes measured 24 hours post-CFA injection. Mechanical hyperalgesia (Randall Sellito Test) is determined by gently restraining the rat and placing the paw between the plinth and pusher (Ugo Basile Analgesy-meter). The gram force when the animal withdraws the paw is recorded.
Rats are tested for baseline response prior to CFA injection. Post-CFA response is tested the next morning (about 24 hours post injection of CFA). Rats are randomized based on post-CFA response with any rat showing a score of >150 grams excluded from further testing. A test compound (prodrug) is orally dosed within a range of 1.5 to 15 mg/kg and mechanical threshold for paw withdrawal is measured at 1 and 2 hours post dosing. Statistical significance is defined as a p value <0.05 in an analysis of covariance followed by a Dunnett's post hoc test for each time point. Table 2 below provides the statistically significant results for Example 10 run substantially as above.

The next test has as its system male Sprague-Dawley rats. Nature of the test: Reversal of persistent pain induced by formalin injection. The format is in vivo. Particulars: po, 2 h, dosed two hours prior to intraplantar formalin, rat.

On to `C[C@H](N)C(=O)N[C@@]1(C(=O)O)CC2(CC2)[C@H]2[C@H](C(=O)O)[C@H]21` [Example 10, (1S,2S,5R,6S)-2-[[(2S)-2-Aminopropanoyl]amino]spiro[bicyclo[3.1.0]hexane-4,1′-cyclopropane]-2,6-dicarboxylic acid dihydrate], for which the “mechanical threshold (von Frey, paw withdrawal)” value worked out at 8.63 ± 1.98 g in the test on rats [1] (four hours post dosing, vehicle 2.35±0.62); 9.06 ± 2.26 g with rats [1] (one hour post dosing, vehicle 1.50±0.60); 12.31 ± 1.86 g with rats [1] (two hours post dosing, vehicle 1.34±0.75). Further, the “AUC of EMG reading for abdominal muscle with 60 mmHg colorectal pressure” value with Male Sprague Dawley rats (1.5 mg/kg po, pre-dosing baseline 853 ± 142, vehicle 849 ± 65) stood at 618 ± 92 μV/sec; in the test on Male Sprague Dawley rats (4.5 mg/kg po, pre-dosing baseline 887 ± 152, p<0.05 vs vehicle) it was 531 ± 99 μV/sec; in the test on Male Sprague Dawley rats (17 mg/kg po, pre-dosing baseline 773 ± 134, p<0.05 vs vehicle), 266 ± 87 μV/sec. Besides, the “Paw withdrawal Threshold” value with rats [2] (1.5 mg/kg po, one hour post dosing, group pre CFA 243 ± 5, 24 hours post CFA 113 ± 8) was 180 ± 14 grams, force; in the test with rats [2] (1.5 mg/kg po, two hours post dosing, group pre CFA 243 ± 5, 24 hours post CFA 113 ± 8) it was 186 ± 19 grams, force; in the test on rats [2] (4.5 mg/kg po, one hour post dosing, group pre CFA 221 ± 10, 24 hours post CFA 114 ± 9), 153 ± 20 grams, force; in the test with rats [2] (4.5 mg/kg po, two hours post dosing, group pre CFA 221 ± 10, 24 hours post CFA 114 ± 9), 221 ± 20 grams, force; in the test on rats [2] (15 mg/kg po, one hour post dosing, group pre CFA 244 ± 4, 24 hours post CFA 108 ± 12, cut-off 250 grams), 250 ± 0 grams, force; in the test on rats [2] (15 mg/kg po, two hours post dosing, group pre CFA 244 ± 4, 24 hours post CFA 108 ± 12), 232 ± 15 grams, force. The ED50 (as a rule, the dose at which the effect has come halfway, by size or by number of responders) in the test on male Sprague-Dawley rats stood at 4.8 mg/kg.
